Patent publication EP2173323B1, “STIMULATING GEL” (LRC Products Limited, priority 2007, dated 2009)

Legend:
[1] = Cooling strength of coolants relative to menthol; conditions: menthol = 100
[2] = Penetration of coolants across body surfaces
From the text: By "penetration enhancer" we mean any compound which aids penetration or absorption of coolants (or other active ingredients) into and through body surfaces, for example, compounds which aid penetration of coolants into and through the skin and mucosal membranes. Preferably, penetration enhancers as used herein aid penetration and/or absorption of coolants which are cyclic carboxamides, such as N-cthyl-p-menthane-3-carboxamide, and/or aid penetration and/or absorption of (-)-isopulegol across body surfaces. Such penetration enhancement may potentiate the action of coolants, or other active ingredients. Any suitable penetration enhancer may be used. Preferred penetration enhancers include ethoxy diglycol, limonene, isopropyl palmitate, sodium lauryl sulphate and L-arginine. Optionally, the penetration enhancer may also act as a vasodilator.
Optionally, the compositions further comprise a penetration enhancer. The penetration enhancer can be any compound which aids penetration or absorption of the cyclic carboxamide and/or of isopulegol into and through body surfaces, for example, compounds which aid penetration into and through the skin and mucosal membranes. Any suitable penetration enhancer may be used. Preferred penetration enhancers include ethoxy diglycol, limonene; isopropyl palmitate; and sodium lauryl sulphate. […]

[3] = Crystallisation / clouding at low temperatures; assay type: physicochemical
[4] = Volatility compared with menthol; assay type: physicochemical

Structure (SMILES): C=C(C)C1CCC(C)CC1O (stereo not drawn) [Isopulegol, 2-isopropenyl-5-methyl-cyclohexanol]
- Cooling strength relative to menthol [1]: 25

Structure (SMILES): N=C(N)NCCC[C@H](N)C(=O)O [L-arginine]
- penetration enhancement of coolants (cyclic carboxamides and isopulegol) [2]: aids penetration of coolants

Structure (SMILES): CC1CCC(C(C)C)C(O)C1 (stereo not drawn) [Menthol]
- Cooling strength relative to menthol [1]: 100

Structure (SMILES): CC1CCC(C(C)C)C2(C1)OCC(CO)O2 (stereo not drawn) [Menthone glycerine acetal]
- Cooling strength relative to menthol [1]: 41

Structure (SMILES): CC1CCC(C(C)C)C(OC(=O)C(C)O)C1 (stereo not drawn) [Menthyl lactate]
- Cooling strength relative to menthol [1]: 43

Structure (SMILES): CCNC(=O)C1CC(C)CCC1C(C)C (stereo not drawn) [WS-3, N-ethyl-p-menthane-3-carboxamide]
- Cooling strength relative to menthol [1]: 150
- crystallisation at low temperatures [3]: does not crystallise at low temperatures
- volatility [4]: lower volatility than menthol

Structure (SMILES): CNC(=O)C(C)(C(C)C)C(C)C [WS-23]
- Cooling strength relative to menthol [1]: 75
